Source: publication PMC10889512, “Pyrimidine Schiff Bases: Synthesis, Structural Characterization and Recent Studies on Biological Activities” (International Journal of Molecular Sciences, 2024)
pIC50: −log10 of the molar value.

What was measured:
AGS = assay: Neutral red uptake assay on AGS; assay type: cell-based, human; conditions: 72 h treatment
Procedure: (§1) Based on the results obtained for the RPTEC cell line, the following concentrations of 4b–d were chosen to be applied to neoplastic cell lines: 0.1, 1, 10, 25, 50, and 100 µM. A172, AGS, CaCo-2, HeLa, and HepG2 cancer cell lines were used to perform a neutral red uptake assay. The obtained results were compared with a negative control (cell lines incubated without tested compounds), and half-maximal inhibitory concentration (IC50) values were calculated. Cell lines were plated in 96-well plates at a density of 1 × 10^4 cells/well. After 24 h incubation, which allowed the cells to attach and start to proliferate, the culture media were replaced with 4a–d dissolved in the appropriate medium at concentrations of 1, 10, 50, 100, 150 and 200 µM. […] Negative (1% DMSO in medium) and positive (1 µM staurosporine) controls were also included. Plates were incubated at 37 °C for 24, 48, and 72 h before the neutral red uptake assay. The neutral red uptake assay was performed as described by Repetto et al.. Briefly, the medium from all wells was discarded, the attached cells were washed with 100 µL PBS, and then 100 µL of neutral red working solution in medium (40 µg/mL) was added to each well. The neutral red solution was incubated overnight in the same conditions as the cells and centrifuged before being added to the cells. The plates were incubated for at least 2 h at 37 °C, 5% CO2, in a humidified atmosphere. Next, the neutral red medium was removed, and the cells were washed with 100 µL PBS. A 100 µL quantity of destain solution consisting of 50% ethanol, 1% glacial acetic acid, and deionized water was added to each well. Plates were incubated for 30 min with constant shaking on a horizontal shaker at 37 °C. Absorption was measured at 540 nm excitation. The cells’ viability was calculated by comparing results from experimental sets with negative controls according to the formula: % viability=ODtest substance−ODblind/ODnegative control−ODblind×100

HeLa = assay: Neutral red uptake assay on HeLa; assay type: cell-based; conditions: Homo sapiens, 72 h treatment
Procedure: as §1

A172 cells = assay: Flow cytometry FDA/PI staining, cell viability, A172; assay type: cell-based, human
Procedure: A detailed analysis of potential cytotoxic mechanisms has been performed only for the selected compound (4b) where the IC50 values under 100 µM were detected in the screening NR assay. Flow cytometry was performed on the A172 and AGS cell lines. Cells were incubated with compound 4b at IC50 for 24, 48, and 72 h before analysis. Fluorescein diacetate (FDA) and propidium iodide (PI) were used as indicators for viable and nonviable (necrotic) cells. Most of the events were captured in the first and the fourth quadrant, which represent viable and necrotic cells, respectively. […] Similar results were obtained for the AGS cell line (Figure 8B), where the viability was 60.95%/55.10%/44.99% after the same incubation periods, respectively. Some events occurred in the second quadrant, but it was difficult to unequivocally categorize them into viable or nonviable (apoptotic/necrotic) cell populations, and thus more sensitive dyes, able to distinguish between the types of cell death, were needed.
Two approaches for flow cytometry were used—FDA/PI staining to determine cell viability and annexin V/PI staining for cell death pathway determination.
For cell viability determination, cells were plated in 6-well plates at a density of 1 × 10^5 cells/well and incubated for 24 h at 37 °C, 5% CO2 and in a humidified atmosphere. Next, cells were treated with 4b at a concentration calculated as IC50 in neutral red uptake assay. After 24, 48, and 72 h incubation, the cells (either adhered or floating) were collected, centrifuged at 1600 rpm, and washed with PBS. FDA and PI stock solution at a 1 mM concentration were prepared in DMSO and H2O, respectively. After centrifugation and supernatant discarding, cells were stained with FDA at a final concentration of 1 µM prepared in PBS and incubated in the dark. After 15 min, they were centrifuged at 1600 rpm, resuspended in ice-cold PBS, and placed on ice. Samples were stained with 1 µM PI for 2 min before the cytometry evaluation. […]

E. coli 25922 = assay: Antimicrobial activity assay, microdilution; assay type: cell-based, Escherichia coli; conditions: concentration range from 0.5 µg/mL to 256 µg/mL
Procedure: (§2) In vitro antimicrobial and antifungal activity was screened using microdilution and modified Richard’s medium. The assay was performed for compounds 4a, 4b, 4c, and 4d with seven reference microbial strains from ATTC (E. coli 25922, S. aureus 43300, K. pneumoniae 700603, A. baumannii 19606, P. aeruginosa 27853, E. faecalis 29212, and C. albicans 10231).
(§3) Seven reference strains from the ATCC collection (Escherichia coli 25922, Staphylococcus aureus 43300, Klebsiella pneumoniae 13883, Acinetobacter baumannii 19606, Pseudomonas aeruginosa 27853, Enterococcus faecalis 29212, and Candida albicans 10231) were used. The assay was performed according to a modified version of Richard et al.’s protocol and ISO standards 20776-1:2019 and 16256:2021 [78, 79]. Microdilution with spectrophotometric measurement was used to calculate MIC50 (minimal inhibitory concentration which decreased the microorganisms’ viability to 50%) values. Briefly, compounds were prepared 100× concentrated in DMSO, and during the whole experiment, they were diluted to 1× with TSB. Serial dilutions of tested compounds were made directly on plates at a concentration range of 0.5 to 256 µg/mL. Microorganisms were incubated for 24 h at 37 °C (bacteria) or 25 °C (yeast) on Petri dishes with TSA. The bacteria/yeast suspensions were prepared at a density 5 × 10^5 CFU/mL (for bacteria) or 0.5–2.5 × 10^5 CFU/mL (for yeast) with TSB. Also, appropriate controls were contained in the experiment: the positive control consisted of a specific strain in TSB, and the negative control was TSB alone. To ensure that used strains were not modified and were still responding to antibacterial/antifungal compounds established by EUCAST, additional tests were conducted with levofloxacin, gentamicin, and amphotericin B. Microplates were incubated on a shaker for 24 h at 37 ± 1 °C or 25 ± 1 °C for the bacteria and yeast strains, respectively. After the incubation, spectrophotometric measurement was performed at 580 nm. MIC50 was calculated by comparing the results obtained for experimental sets with positive controls. Next, 50 µL aliquots of 1% (m/v) TTC solution were added to each well. The plates were incubated on the shaker for 24 h at 37/25 °C. In living microbial cells, colourless TTC is converted into red formazan crystals, which allows for visual observation and MBC/MFC (minimal bactericidal/fungicidal concentration) value assessment.

K. pneumoniae 700603 = assay: Antimicrobial activity assay, microdilution; assay type: cell-based, Klebsiella pneumoniae; conditions: concentration range from 0.5 µg/mL to 256 µg/mL
Procedure: as §2, §3

For `Cc1nc(-c2ccccc2)nc(Nc2ccc(F)cc2)c1C=Nc1cccc(Cl)c1` [compound 4b, 5-{[(3-chlorophenyl)imino]methyl}-N-(4-fluorophenyl)-6-methyl-2-phenylpyrimidin-4-amine], the pIC50 (AGS) was 4.49, the pIC50 (AGS; Homo sapiens, 72 h) was 4.49 and the pIC50 (HeLa) was under 4.00. For the same compound, the “Q1 events (viable cells; viability), FDA/PI” value (“Q1 events” for short) (A172 cells; A172, at IC50, 24 h) was 59.32%, the “Q1 events” value (A172 cells; A172, at IC50, 48 h) was 50.98% and the “Q1 events” value (A172 cells; A172, at IC50, 72 h) was 43.88%. The “MIC and MBC/MFC activity” value (E. coli 25922) was “Neither MIC nor MBC/MFC activity was observed” and the “MIC and MBC/MFC activity” value (K. pneumoniae 700603) was “Neither MIC nor MBC/MFC activity was observed”.
